Experimental data published in PubChem BioAssay (NCI).
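Briefly, cells in 96-well plates were exposed to five compound concentrations for 48 h, and endpoints were estimated by linear interpolation. At the GI50, growth is halved. TGI marks complete inhibition of growth.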

Key:
Test in all cases: NCI anticancer screen, dose series, 48 h
786-0 renal = system: 786-0 renal
A498 renal = system: A498 renal
A549 NSCLC = system: A549 NSCLC
ACHN renal = system: ACHN renal
BT-549 breast = system: BT-549 breast
CAKI-1 renal = system: CAKI-1 renal
CCRF-CEM leukemia = system: CCRF-CEM leukemia
COLO 205 colon = system: COLO 205 colon
DU-145 prostate = system: DU-145 prostate
EKVX NSCLC = system: EKVX NSCLC
HCC-2998 colon = system: HCC-2998 colon
HCT-116 colon = system: HCT-116 colon
HCT-15 colon = system: HCT-15 colon
HL-60(TB) leukemia = system: HL-60(TB) leukemia
HOP-62 NSCLC = system: HOP-62 NSCLC
HOP-92 NSCLC = system: HOP-92 NSCLC
HS 578T breast = system: HS 578T breast
HT29 colon = system: HT29 colon
IGROV1 ovarian = system: IGROV1 ovarian
K-562 leukemia = system: K-562 leukemia
KM12 colon = system: KM12 colon
LOX IMVI melanoma = system: LOX IMVI melanoma
M14 melanoma = system: M14 melanoma
MALME-3M melanoma = system: MALME-3M melanoma
MCF7 breast = system: MCF7 breast
MDA-MB-231 breast = system: MDA-MB-231 breast
MDA-MB-435 = system: MDA-MB-435
MOLT-4 leukemia = system: MOLT-4 leukemia
NCI-H226 lung = system: NCI-H226 lung
NCI-H23 lung = system: NCI-H23 lung
NCI-H460 lung = system: NCI-H460 lung
NCI-H522 lung = system: NCI-H522 lung
NCI/ADR-RES ovarian = system: NCI/ADR-RES ovarian
OVCAR-3 ovarian = system: OVCAR-3 ovarian
OVCAR-4 ovarian = system: OVCAR-4 ovarian
OVCAR-5 ovarian = system: OVCAR-5 ovarian
OVCAR-8 ovarian = system: OVCAR-8 ovarian
PC-3 prostate = system: PC-3 prostate
RPMI-8226 leukemia = system: RPMI-8226 leukemia
RXF 393 renal = system: RXF 393 renal
SF-268 CNS = system: SF-268 CNS
SF-295 CNS = system: SF-295 CNS
SF-539 CNS = system: SF-539 CNS
SK-MEL-2 melanoma = system: SK-MEL-2 melanoma
SK-MEL-28 melanoma = system: SK-MEL-28 melanoma
SK-MEL-5 melanoma = system: SK-MEL-5 melanoma
SK-OV-3 ovarian = system: SK-OV-3 ovarian
SN12C renal = system: SN12C renal
SNB-19 CNS = system: SNB-19 CNS
SNB-75 CNS = system: SNB-75 CNS
SR leukemia = system: SR leukemia
SW-620 colon = system: SW-620 colon
T-47D breast = system: T-47D breast
TK-10 renal = system: TK-10 renal
U251 CNS = system: U251 CNS
UACC-257 melanoma = system: UACC-257 melanoma
UACC-62 melanoma = system: UACC-62 melanoma
UO-31 renal = system: UO-31 renal

## Cc1c(C(=O)O[C@H]2[C@@H]3[C@H](C)CC[C@H]3[C@]3(C)O[C@@]2(C2CCCCC2)C[C@H]3OC(=O)CO)ccc2ccccc12
786-0 renal
  GI50: 6.52 µM
  TGI: 13.1 µM
A498 renal
  GI50: 17.3 nM
  TGI: 144 nM
A549 NSCLC
  GI50: 7.11 µM
  TGI: 13.7 µM
ACHN renal
  GI50: 58.9 nM
  TGI: 766 nM
BT-549 breast
  GI50: 5.28 µM
  TGI: 12.7 µM
CAKI-1 renal
  GI50: 244 nM
  TGI: 6.82 µM
CCRF-CEM leukemia
  GI50: 9.13 µM
  TGI: 20.9 µM
COLO 205 colon
  GI50: 9.2 µM
  TGI: 17.5 µM
DU-145 prostate
  GI50: 7.77 µM
  TGI: 14.6 µM
EKVX NSCLC
  GI50: 6.94 µM
  TGI: 14.2 µM
HCC-2998 colon
  GI50: 8.09 µM
  TGI: 15.8 µM
HCT-116 colon
  GI50: 7.57 µM
  TGI: 14.5 µM
HCT-15 colon
  GI50: 7.86 µM
  TGI: 15.2 µM
HL-60(TB) leukemia
  GI50: 9.3 µM
  TGI: 20 µM
HOP-62 NSCLC
  GI50: 8.48 µM
  TGI: 15.3 µM
HOP-92 NSCLC
  GI50: 4.19 µM
  TGI: 10.4 µM
HS 578T breast
  GI50: 16.5 nM
  TGI: 142 nM
HT29 colon
  GI50: 7.07 µM
  TGI: 14.2 µM
IGROV1 ovarian
  GI50: 8.39 µM
  TGI: 17.3 µM
K-562 leukemia
  GI50: 11 µM
  TGI: 27 µM
KM12 colon
  GI50: 8.35 µM
  TGI: 17.4 µM
LOX IMVI melanoma
  GI50: 7.45 µM
  TGI: 14.2 µM
M14 melanoma
  GI50: 7.92 µM
  TGI: 16.7 µM
MALME-3M melanoma
  GI50: 7.24 µM
  TGI: 14.5 µM
MCF7 breast
  GI50: 7.38 µM
  TGI: 15.9 µM
MDA-MB-231 breast
  GI50: 8 µM
  TGI: 16.7 µM
MDA-MB-435
  GI50: 8.15 µM
  TGI: 15.4 µM
MOLT-4 leukemia
  GI50: 7.15 µM
  TGI: 17.7 µM
NCI-H226 lung
  GI50: 7.67 µM
  TGI: 15.1 µM
NCI-H23 lung
  GI50: 8.29 µM
  TGI: 17.7 µM
NCI-H460 lung
  GI50: 7.87 µM
  TGI: 16.6 µM
NCI-H522 lung
  GI50: 7.11 µM
  TGI: 13.8 µM
NCI/ADR-RES ovarian
  GI50: 5.65 µM
  TGI: 12.8 µM
OVCAR-3 ovarian
  GI50: 7.57 µM
  TGI: 14.4 µM
OVCAR-4 ovarian
  GI50: 7.6 µM
  TGI: 14.3 µM
OVCAR-5 ovarian
  GI50: 9.5 µM
  TGI: 17.8 µM
OVCAR-8 ovarian
  GI50: 6.64 µM
  TGI: 13.8 µM
PC-3 prostate
  GI50: 6.96 µM
  TGI: 15.6 µM
RPMI-8226 leukemia
  GI50: 8.89 µM
  TGI: 20.6 µM
RXF 393 renal
  GI50: 164 nM
  TGI: 7.12 µM
SF-268 CNS
  GI50: 3.49 µM
  TGI: 11.8 µM
SF-295 CNS
  GI50: 7.04 µM
  TGI: 13.6 µM
SF-539 CNS
  GI50: 7.65 µM
  TGI: 14.9 µM
SK-MEL-2 melanoma
  GI50: 9.19 µM
  TGI: 16.7 µM
SK-MEL-28 melanoma
  GI50: 8.44 µM
  TGI: 15.8 µM
SK-MEL-5 melanoma
  GI50: 7.28 µM
  TGI: 13.8 µM
SK-OV-3 ovarian
  GI50: 9.19 µM
  TGI: 17.1 µM
SN12C renal
  GI50: 157 nM
  TGI: 8.36 µM
SNB-19 CNS
  GI50: 8.56 µM
  TGI: 15.6 µM
SNB-75 CNS
  GI50: 2.98 µM
  TGI: 11 µM
SR leukemia
  GI50: 7.36 µM
  TGI: 18.3 µM
SW-620 colon
  GI50: 8.01 µM
  TGI: 16.3 µM
T-47D breast
  GI50: 5.37 µM
  TGI: 11.6 µM
TK-10 renal
  GI50: 8.12 µM
  TGI: 15.4 µM
U251 CNS
  GI50: 7.43 µM
  TGI: 13.9 µM
UACC-257 melanoma
  GI50: 7.83 µM
  TGI: 14.8 µM
UACC-62 melanoma
  GI50: 7.97 µM
  TGI: 15.1 µM
UO-31 renal
  GI50: 0.408 µM
  TGI: 7.96 µM

## CCOC(=O)Cc1csc(NC(=O)COC(=O)c2ccc(OC)cc2)n1
786-0 renal
  GI50: 35.7 µM
  TGI: > 57.6 µM
A498 renal
  GI50: > 100000 nM
  TGI: > 100000 nM
A549 NSCLC
  GI50: > 100 µM
  TGI: > 100 µM
ACHN renal
  GI50: > 100000 nM
  TGI: > 100000 nM
BT-549 breast
  GI50: 24.7 µM
  TGI: 66.3 µM
CAKI-1 renal
  GI50: > 100000 nM
  TGI: > 100 µM
CCRF-CEM leukemia
  GI50: 11.1 µM
  TGI: 31.5 µM
COLO 205 colon
  GI50: > 95.9 µM
  TGI: > 100 µM
DU-145 prostate
  GI50: 57.2 µM
  TGI: > 100 µM
EKVX NSCLC
  GI50: 52.9 µM
  TGI: > 100 µM
HCC-2998 colon
  GI50: > 100 µM
  TGI: > 100 µM
HCT-116 colon
  GI50: > 91.9 µM
  TGI: > 100 µM
HCT-15 colon
  GI50: > 100 µM
  TGI: > 100 µM
HL-60(TB) leukemia
  GI50: 0.407 µM
  TGI: 2.63 µM
HOP-62 NSCLC
  GI50: > 78.8 µM
  TGI: > 100 µM
HOP-92 NSCLC
  GI50: 7.58 µM
  TGI: 24.3 µM
HS 578T breast
  GI50: > 100000 nM
  TGI: > 100000 nM
HT29 colon
  GI50: 30.8 µM
  TGI: > 80.1 µM
IGROV1 ovarian
  GI50: 2.99 µM
  TGI: 8.77 µM
K-562 leukemia
  GI50: 1.16 µM
  TGI: > 60.9 µM
KM12 colon
  GI50: > 83.6 µM
  TGI: > 100 µM
LOX IMVI melanoma
  GI50: 11.1 µM
  TGI: > 37.5 µM
M14 melanoma
  GI50: > 100 µM
  TGI: > 100 µM
MALME-3M melanoma
  GI50: 64.9 µM
  TGI: > 100 µM
MCF7 breast
  GI50: 64.2 µM
  TGI: > 100 µM
MDA-MB-231 breast
  GI50: > 78.3 µM
  TGI: > 100 µM
MDA-MB-435
  GI50: > 100 µM
  TGI: > 100 µM
MOLT-4 leukemia
  TGI: > 35.6 µM
NCI-H226 lung
  GI50: > 100 µM
  TGI: > 100 µM
NCI-H23 lung
  GI50: 29.8 µM
  TGI: > 100 µM
NCI-H460 lung
  GI50: 33.8 µM
  TGI: > 100 µM
NCI-H522 lung
  GI50: 19.6 µM
  TGI: 38.5 µM
NCI/ADR-RES ovarian
  GI50: > 100 µM
  TGI: > 100 µM
OVCAR-3 ovarian
  GI50: 22.4 µM
  TGI: 46.3 µM
OVCAR-4 ovarian
  GI50: 98.2 µM
  TGI: > 100 µM
OVCAR-5 ovarian
  GI50: > 51.3 µM
  TGI: > 83.8 µM
OVCAR-8 ovarian
  GI50: 47.5 µM
  TGI: > 73.2 µM
PC-3 prostate
  GI50: 26.5 µM
  TGI: > 100 µM
RPMI-8226 leukemia
  GI50: 12.5 µM
  TGI: 33.5 µM
RXF 393 renal
  GI50: > 70800 nM
  TGI: > 100 µM
SF-268 CNS
  GI50: 16.6 µM
  TGI: 40.9 µM
SF-295 CNS
  GI50: > 100 µM
  TGI: > 100 µM
SF-539 CNS
  GI50: 19.3 µM
  TGI: 37.7 µM
SK-MEL-2 melanoma
  GI50: > 100 µM
  TGI: > 100 µM
SK-MEL-28 melanoma
  GI50: > 100 µM
  TGI: > 100 µM
SK-MEL-5 melanoma
  GI50: > 100 µM
  TGI: > 100 µM
SK-OV-3 ovarian
  GI50: > 75.4 µM
  TGI: > 100 µM
SN12C renal
  GI50: > 100000 nM
  TGI: > 100 µM
SNB-19 CNS
  GI50: > 100 µM
  TGI: > 100 µM
SNB-75 CNS
  GI50: 28.3 µM
  TGI: > 56.6 µM
SR leukemia
  GI50: 6.04 µM
SW-620 colon
  GI50: > 96.1 µM
  TGI: > 100 µM
T-47D breast
  GI50: > 100 µM
  TGI: > 100 µM
TK-10 renal
  GI50: > 100 µM
  TGI: > 100 µM
U251 CNS
  GI50: 43.3 µM
  TGI: > 100 µM
UACC-257 melanoma
  GI50: > 100 µM
  TGI: > 100 µM
UACC-62 melanoma
  GI50: > 100 µM
  TGI: > 100 µM
UO-31 renal
  GI50: 5.76 µM
  TGI: 11.1 µM
